In ChEMBL document CHEMBL4806968, “Hipk inhibitors and methods of use thereof” (2020):
Activity calls are given as the source filed them. The rule behind the calls is not given here.

Key:
[1] = target: Macrophage colony-stimulating factor 1 receptor (Homo sapiens) (UniProt P07333); assay: Inhibition of FMS (unknown origin) at 0.5 uM relative to control
[2] = target: T1, Tyrosine-protein kinase Mer (Homo sapiens) (UniProt Q12866); assay: Inhibition of MER (unknown origin) at 0.5 uM relative to control
T1 sequence (whole entry): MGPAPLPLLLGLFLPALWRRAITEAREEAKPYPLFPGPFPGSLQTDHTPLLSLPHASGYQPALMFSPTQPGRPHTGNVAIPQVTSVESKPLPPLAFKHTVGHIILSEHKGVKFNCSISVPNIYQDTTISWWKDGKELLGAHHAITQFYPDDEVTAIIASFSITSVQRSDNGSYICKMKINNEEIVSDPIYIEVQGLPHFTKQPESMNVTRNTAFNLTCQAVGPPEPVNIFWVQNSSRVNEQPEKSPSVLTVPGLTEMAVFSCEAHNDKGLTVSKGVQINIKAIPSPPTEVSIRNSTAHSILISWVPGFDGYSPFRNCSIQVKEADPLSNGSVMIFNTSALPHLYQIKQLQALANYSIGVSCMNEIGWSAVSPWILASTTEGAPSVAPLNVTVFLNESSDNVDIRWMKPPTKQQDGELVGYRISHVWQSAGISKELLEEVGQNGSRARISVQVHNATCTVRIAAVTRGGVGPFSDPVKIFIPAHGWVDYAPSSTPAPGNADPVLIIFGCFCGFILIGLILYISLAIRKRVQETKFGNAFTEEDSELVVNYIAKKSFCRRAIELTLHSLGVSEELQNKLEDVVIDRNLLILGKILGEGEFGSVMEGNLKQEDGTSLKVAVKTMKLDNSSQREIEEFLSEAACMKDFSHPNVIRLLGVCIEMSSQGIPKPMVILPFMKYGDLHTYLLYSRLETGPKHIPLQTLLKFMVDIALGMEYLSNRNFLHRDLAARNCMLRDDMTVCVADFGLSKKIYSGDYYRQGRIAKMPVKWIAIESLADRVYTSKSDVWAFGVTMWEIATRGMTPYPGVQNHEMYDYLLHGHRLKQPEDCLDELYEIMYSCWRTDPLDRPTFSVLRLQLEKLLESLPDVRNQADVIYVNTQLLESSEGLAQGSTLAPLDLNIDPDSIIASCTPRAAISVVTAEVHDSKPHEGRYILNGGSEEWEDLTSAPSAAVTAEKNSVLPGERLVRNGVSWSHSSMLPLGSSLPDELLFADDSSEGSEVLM

[3] = target: Mitogen-activated protein kinase 14 (Homo sapiens) (UniProt Q16539); assay: Inhibition of p38alpha (unknown origin) at 0.5 uM relative to control
[4] = target: Ephrin type-A receptor 7 (Homo sapiens) (UniProt Q15375); assay: Inhibition of EPHA7 (unknown origin) at 0.5 uM relative to control
[5] = target: T2, Serine/threonine-protein kinase TAO3 (Homo sapiens) (UniProt Q9H2K8); assay: Inhibition of TAOK3 (unknown origin) at 0.5 uM relative to control
T2 sequence (whole entry): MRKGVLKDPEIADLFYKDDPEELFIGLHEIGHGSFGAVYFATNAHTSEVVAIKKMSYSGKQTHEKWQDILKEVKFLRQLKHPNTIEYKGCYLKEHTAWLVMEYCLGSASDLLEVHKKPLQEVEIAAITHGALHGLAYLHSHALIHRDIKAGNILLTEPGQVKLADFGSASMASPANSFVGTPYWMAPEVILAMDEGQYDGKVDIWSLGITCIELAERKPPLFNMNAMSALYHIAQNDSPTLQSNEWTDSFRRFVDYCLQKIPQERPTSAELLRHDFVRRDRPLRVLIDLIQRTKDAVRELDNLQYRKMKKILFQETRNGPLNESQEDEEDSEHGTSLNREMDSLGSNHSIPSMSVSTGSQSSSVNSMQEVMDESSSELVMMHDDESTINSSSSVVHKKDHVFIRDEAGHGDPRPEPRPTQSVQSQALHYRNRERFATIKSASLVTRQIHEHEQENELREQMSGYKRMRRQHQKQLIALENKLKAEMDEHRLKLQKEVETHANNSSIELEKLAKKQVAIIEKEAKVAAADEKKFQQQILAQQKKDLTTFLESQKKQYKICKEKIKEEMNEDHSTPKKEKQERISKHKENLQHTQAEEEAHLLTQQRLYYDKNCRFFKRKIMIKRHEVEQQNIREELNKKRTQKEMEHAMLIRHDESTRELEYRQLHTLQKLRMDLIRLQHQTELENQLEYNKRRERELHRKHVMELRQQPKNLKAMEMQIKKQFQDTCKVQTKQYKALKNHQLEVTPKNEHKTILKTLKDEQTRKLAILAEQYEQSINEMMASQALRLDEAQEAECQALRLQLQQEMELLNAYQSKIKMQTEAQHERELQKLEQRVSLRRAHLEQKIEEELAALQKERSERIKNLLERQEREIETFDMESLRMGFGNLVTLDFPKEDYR

[6] = target: Homeodomain-interacting protein kinase 2 (Homo sapiens) (UniProt Q9H2X6); assay: Inhibition of HIPK2 (unknown origin) assessed as effect on HIPK2 protein level by Western blotting analysis
MDA-MB-231 [7] = assay: Inhibition of HIPK4 protein expression in human MDA-MB-231 cells by Western blotting analysis; assay type: functional, cell-based
MDA-MB-231 [8] = assay: Inhibition of FAK/pFAK protein expression in human MDA-MB-231 cells by Western blotting analysis; assay type: functional, cell-based
[9] = target: Angiopoietin-1 receptor (Homo sapiens) (UniProt Q02763); assay: Inhibition of TIE2 (unknown origin) at 0.5 uM relative to control
[10] = target: RAF proto-oncogene serine/threonine-protein kinase (Homo sapiens) (UniProt P04049); assay: Inhibition of CRAF (unknown origin) at 0.5 uM relative to control
[11] = target: Ephrin type-A receptor 4 (Homo sapiens) (UniProt P54764); assay: Inhibition of EPHA4 (unknown origin) at 0.5 uM relative to control

Chain of Homeodomain-interacting protein kinase 2 (Homo sapiens) (Q9H2X6 whole entry, looked up): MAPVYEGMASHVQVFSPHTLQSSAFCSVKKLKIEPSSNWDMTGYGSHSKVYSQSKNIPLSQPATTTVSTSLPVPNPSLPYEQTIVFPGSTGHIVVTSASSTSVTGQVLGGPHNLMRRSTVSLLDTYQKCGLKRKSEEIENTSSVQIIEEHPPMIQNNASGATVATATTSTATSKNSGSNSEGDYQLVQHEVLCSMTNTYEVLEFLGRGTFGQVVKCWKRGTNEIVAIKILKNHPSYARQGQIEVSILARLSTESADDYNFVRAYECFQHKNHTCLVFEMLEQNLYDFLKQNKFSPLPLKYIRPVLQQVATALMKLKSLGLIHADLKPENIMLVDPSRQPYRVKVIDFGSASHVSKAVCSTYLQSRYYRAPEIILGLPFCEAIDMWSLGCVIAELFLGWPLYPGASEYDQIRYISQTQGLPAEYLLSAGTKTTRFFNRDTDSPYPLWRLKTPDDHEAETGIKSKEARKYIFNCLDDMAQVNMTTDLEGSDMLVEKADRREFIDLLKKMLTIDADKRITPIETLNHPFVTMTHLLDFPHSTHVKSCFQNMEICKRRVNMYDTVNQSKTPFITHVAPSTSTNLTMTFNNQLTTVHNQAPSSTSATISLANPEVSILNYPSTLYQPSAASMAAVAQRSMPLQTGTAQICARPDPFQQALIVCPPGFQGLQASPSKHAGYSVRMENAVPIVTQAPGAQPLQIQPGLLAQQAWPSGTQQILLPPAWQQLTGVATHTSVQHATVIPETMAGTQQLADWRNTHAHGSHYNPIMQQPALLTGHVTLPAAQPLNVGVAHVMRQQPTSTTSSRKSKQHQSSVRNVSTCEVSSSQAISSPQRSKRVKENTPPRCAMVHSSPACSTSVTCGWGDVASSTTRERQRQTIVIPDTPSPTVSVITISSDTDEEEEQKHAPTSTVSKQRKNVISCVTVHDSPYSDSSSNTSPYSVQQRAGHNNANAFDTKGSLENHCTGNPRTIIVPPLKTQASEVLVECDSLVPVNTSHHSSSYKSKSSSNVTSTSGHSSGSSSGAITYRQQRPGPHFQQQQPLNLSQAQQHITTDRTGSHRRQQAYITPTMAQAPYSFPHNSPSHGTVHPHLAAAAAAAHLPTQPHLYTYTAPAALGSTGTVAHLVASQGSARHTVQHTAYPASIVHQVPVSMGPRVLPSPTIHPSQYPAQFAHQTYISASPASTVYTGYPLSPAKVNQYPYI
Chain of Ephrin type-A receptor 7 (Homo sapiens) (Q15375 28-998 limits assumed): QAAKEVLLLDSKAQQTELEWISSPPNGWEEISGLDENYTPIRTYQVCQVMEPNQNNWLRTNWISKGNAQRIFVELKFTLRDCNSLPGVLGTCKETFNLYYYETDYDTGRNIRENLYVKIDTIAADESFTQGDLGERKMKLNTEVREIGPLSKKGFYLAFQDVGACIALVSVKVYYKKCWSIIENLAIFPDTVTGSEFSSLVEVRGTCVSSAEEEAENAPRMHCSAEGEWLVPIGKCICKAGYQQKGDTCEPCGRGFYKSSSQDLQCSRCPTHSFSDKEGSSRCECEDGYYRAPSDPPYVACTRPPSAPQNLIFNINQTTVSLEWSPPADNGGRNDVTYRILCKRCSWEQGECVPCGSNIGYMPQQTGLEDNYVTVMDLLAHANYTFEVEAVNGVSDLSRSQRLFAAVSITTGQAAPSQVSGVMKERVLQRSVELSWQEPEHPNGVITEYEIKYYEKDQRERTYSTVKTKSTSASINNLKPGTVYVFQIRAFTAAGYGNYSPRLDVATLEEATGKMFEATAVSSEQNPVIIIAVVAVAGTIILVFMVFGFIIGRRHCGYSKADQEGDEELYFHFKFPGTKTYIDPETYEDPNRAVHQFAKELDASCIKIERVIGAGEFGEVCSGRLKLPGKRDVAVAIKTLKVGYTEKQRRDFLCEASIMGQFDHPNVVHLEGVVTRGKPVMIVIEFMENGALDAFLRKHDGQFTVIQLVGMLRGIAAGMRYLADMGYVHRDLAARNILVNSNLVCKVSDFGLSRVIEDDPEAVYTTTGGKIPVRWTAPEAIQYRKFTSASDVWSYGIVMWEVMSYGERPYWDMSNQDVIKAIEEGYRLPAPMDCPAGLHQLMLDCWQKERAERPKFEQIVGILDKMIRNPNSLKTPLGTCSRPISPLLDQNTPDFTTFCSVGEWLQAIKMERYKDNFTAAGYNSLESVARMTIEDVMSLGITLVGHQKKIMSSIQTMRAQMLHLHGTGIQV
Chain of Macrophage colony-stimulating factor 1 receptor (Homo sapiens) (P07333 whole entry): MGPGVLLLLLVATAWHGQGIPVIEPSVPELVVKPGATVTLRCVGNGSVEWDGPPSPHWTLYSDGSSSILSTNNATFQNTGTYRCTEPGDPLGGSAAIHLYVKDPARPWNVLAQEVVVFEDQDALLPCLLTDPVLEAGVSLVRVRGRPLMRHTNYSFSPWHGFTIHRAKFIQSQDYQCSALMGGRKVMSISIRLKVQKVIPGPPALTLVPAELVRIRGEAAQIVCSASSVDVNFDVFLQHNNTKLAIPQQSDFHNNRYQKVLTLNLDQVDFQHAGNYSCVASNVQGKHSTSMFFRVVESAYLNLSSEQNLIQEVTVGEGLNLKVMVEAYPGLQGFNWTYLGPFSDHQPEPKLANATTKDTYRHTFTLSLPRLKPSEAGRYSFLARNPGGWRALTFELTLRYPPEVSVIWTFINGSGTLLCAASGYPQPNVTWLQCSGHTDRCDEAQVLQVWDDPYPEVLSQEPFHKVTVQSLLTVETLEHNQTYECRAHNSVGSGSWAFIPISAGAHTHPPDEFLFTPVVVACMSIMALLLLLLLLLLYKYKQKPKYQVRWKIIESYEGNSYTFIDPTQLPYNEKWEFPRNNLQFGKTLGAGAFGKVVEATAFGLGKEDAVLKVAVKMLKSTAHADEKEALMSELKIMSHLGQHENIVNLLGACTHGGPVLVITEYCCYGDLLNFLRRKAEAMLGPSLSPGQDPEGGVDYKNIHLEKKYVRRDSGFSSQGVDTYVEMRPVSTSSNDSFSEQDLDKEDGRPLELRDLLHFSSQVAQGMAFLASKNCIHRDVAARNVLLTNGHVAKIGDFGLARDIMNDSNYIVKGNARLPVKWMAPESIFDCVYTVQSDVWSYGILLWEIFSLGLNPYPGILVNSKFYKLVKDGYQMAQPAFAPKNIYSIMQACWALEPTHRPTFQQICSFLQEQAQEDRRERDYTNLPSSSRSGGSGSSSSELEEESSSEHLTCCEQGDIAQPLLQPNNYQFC
Chain of Angiopoietin-1 receptor (Homo sapiens) (Q02763 whole entry): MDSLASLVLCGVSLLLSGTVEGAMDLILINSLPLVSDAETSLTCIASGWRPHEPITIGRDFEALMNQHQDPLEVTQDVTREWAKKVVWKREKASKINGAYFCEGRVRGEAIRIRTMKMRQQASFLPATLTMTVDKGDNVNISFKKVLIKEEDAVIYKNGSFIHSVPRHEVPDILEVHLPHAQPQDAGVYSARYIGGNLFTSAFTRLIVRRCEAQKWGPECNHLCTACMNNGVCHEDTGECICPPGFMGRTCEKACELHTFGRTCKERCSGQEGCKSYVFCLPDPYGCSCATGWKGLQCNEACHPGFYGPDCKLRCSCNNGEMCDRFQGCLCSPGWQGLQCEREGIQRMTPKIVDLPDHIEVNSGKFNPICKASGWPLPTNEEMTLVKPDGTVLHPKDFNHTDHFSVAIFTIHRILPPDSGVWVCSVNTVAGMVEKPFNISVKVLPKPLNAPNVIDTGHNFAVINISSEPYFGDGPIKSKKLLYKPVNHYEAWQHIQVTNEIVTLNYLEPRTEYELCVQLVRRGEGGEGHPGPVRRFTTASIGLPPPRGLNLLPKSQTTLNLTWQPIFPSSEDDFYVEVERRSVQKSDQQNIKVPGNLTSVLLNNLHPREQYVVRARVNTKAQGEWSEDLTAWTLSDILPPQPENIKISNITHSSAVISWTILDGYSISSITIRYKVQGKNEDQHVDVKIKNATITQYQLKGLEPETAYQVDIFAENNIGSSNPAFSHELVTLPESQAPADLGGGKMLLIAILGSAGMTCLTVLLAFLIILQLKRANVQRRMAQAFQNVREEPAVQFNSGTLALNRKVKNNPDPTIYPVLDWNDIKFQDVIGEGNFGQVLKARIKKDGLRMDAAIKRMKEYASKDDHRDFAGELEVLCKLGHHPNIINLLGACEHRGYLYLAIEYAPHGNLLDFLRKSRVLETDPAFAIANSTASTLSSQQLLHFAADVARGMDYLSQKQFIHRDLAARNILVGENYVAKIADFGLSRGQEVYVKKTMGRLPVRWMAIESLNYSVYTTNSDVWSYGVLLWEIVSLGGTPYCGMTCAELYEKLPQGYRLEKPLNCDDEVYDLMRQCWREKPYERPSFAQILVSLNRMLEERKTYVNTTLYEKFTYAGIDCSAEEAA
Chain of RAF proto-oncogene serine/threonine-protein kinase (Homo sapiens) (P04049 whole entry): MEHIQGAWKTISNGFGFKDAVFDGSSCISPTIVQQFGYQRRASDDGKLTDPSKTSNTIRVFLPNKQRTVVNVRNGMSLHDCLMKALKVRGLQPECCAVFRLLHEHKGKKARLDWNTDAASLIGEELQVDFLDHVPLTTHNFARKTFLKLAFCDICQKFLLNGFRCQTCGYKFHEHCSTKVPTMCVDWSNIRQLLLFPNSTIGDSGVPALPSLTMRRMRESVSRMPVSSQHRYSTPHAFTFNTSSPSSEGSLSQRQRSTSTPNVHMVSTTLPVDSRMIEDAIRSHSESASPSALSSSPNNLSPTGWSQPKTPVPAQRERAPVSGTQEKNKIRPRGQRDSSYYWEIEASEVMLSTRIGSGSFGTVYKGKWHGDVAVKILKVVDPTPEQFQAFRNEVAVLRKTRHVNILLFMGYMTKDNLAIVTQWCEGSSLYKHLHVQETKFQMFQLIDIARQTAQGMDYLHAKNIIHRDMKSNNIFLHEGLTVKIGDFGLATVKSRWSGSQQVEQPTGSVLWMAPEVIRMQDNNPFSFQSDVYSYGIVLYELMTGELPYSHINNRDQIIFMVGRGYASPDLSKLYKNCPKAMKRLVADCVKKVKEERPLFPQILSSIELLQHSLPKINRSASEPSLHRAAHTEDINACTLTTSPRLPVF

SMILES	inhibition [1]	inhibition [2]	inhibition [3]	inhibition [4]	inhibition [5]	Activity [6]	inhibition (MDA-MB-231 [7])	inhibition (MDA-MB-231 [8])	inhibition [9]	inhibition [10]	inhibition [11]
CNC(=O)c1cc(Oc2ccc(NC(=O)c3nc(SC)n(CCN(C)C)c3-c3ccc(F)cc3)cc2)ccn1	65%										
CNC(=O)c1cc(Oc2ccc(NC(=O)c3nc(SC)oc3-c3ccc(F)cc3)cc2)ccn1		55%	65%	41%	39%	inactive	Active	Active			
CNC(=O)c1cc(Oc2ccc(NC(=O)c3nc(NC)sc3-c3ccc(F)cc3)cc2)ccn1				60%	55%				43%	63%	
CNC(=O)c1cc(Oc2ccc(NC(=O)c3n[nH]nc3-c3ccc(F)cc3)cc2)ccn1	47%									57%	
CNC(=O)c1cc(Oc2ccc(NC(=O)c3nc(C(F)(F)F)sc3-c3ccc(F)cc3)cc2)ccn1	43%	49%									
CNC(=O)c1cc(Oc2ccc(NC(=O)c3nc(SC)[nH]c3-c3ccc(F)cc3)cc2)ccn1		91%				inactive	Active	Active	88%		92%
CNC(=O)c1cc(Oc2ccc(NC(=O)c3nc(SC)oc3-c3ccc(F)cc3)cc2F)ccn1		41%	63%	53%	40%						38%
CSc1nc(C(=O)Nc2ccc(Oc3cc4cnn(C)c4cc3Br)cc2)c(-c2ccc(F)cc2)o1			25%	22%					25%		
CNC(=O)c1cc(Oc2ccc(NC(=O)c3nc(S(C)(=O)=O)sc3-c3ccc(F)cc3)cc2)ccn1	39%	60%	15%			inactive	Active	Active	53%	11%	18%
